Experimental data: publication PMC3022755, “HP1 Recruits Activity-Dependent Neuroprotective Protein to H3K9me3 Marked Pericentromeric Heterochromatin for Silencing of Major Satellite Repeats” (PLoS ONE, 2011)
Where no end group is shown, it is not given here. [ ]: non-standard residue; d: D form. The star is where a group is joined. Biotin = O=C1N[C@H]2[C@H](CS[C@H]2CCCCC(=O)*)N1; Lys(Me3) = C[N+](C)(C)CCCC[C@H](N)C(=O)O; d = 2'-deoxy (DNA)

Tests used:
H3K27me1 = H3K27me1 levels and distribution after ADNP knockdown; type: cell-based, mouse; conditions: NIH3T3, ADNP knockdown; western blot and immunofluorescence
ADNP = test: siRNA knockdown, western blot; type: cell-based, mouse; conditions: NIH3T3, vs scrambled siRNA and untransfected (mock)
[1] = system: major satellite repeat sequences; test: CpG methylation, Southern blot after TaiI digestion; type: cell-based, mouse; conditions: NIH3T3, ADNP knockdown
H3K9me3 = H3K9me3 levels and distribution after ADNP knockdown; type: cell-based, mouse; conditions: NIH3T3, ADNP knockdown; western blot and immunofluorescence
H4K20me3 = H4K20me3 levels and distribution after ADNP knockdown; type: cell-based, mouse; conditions: NIH3T3, ADNP knockdown; western blot and immunofluorescence
HP1α, HP1β and HP1γ = test: HP1 distribution after ADNP knockdown; type: cell-based, mouse; conditions: NIH3T3, ADNP knockdown; immunofluorescence
major satellite repeats = test: Major satellite repeat transcripts, real time PCR; type: cell-based, mouse; conditions: ADNP knockdown NIH3T3; relative to GAPDH; vs scrambled siRNA or mock; triplicate
HP1 = test: ADNP peptide pulldown of HeLa S3 nuclear extract, western blot; type: binding

Substance	effects on levels and distribution of H3K27me1 (H3K27me1)	ADNP protein levels (ADNP)	reduction of CpG methylation at major satellite repeats [1]	effects on levels and distribution of H3K9me3 (H3K9me3)	effects on levels and distribution of H4K20me3 (H4K20me3)	distribution of HP1α, HP1β and HP1γ (HP1α, HP1β and HP1γ)	level of major satellite transcripts (major satellite repeats)	HP1 binding (HP1)
ADNP siRNA: sense 5′ - [GAUUCUUAUGAGGCUAGGA] RNA [TT] DNA, antisense 5′ - [UCCUAGCCUCAUAAGAAUC] RNA [TT] DNA (RNA, 3' dTdT, backbone not given here) [sense 5′ - [GAUUCUUAUGAGGCUAGGA]; RNA [TT]; DNA, antisense 5′ - [UCCUAGCCUCAUAAGAAUC]; DNA]	no effects	significant reduction	no reduction	no effects	no effects	appeared normal	elevated	
Biotin-EDDSYEAR[Lys(Me3)]SFLTKYFNKQP [ADNPK767me3, methylated ADNP peptide used for pulldown]								does not bind
